This test addresses T1, human CGRP receptor (Homo sapiens, UniProt O60894+Q16602).
T1 construct: SK-N-MC membranes (˜20 μg protein) are incubated for 180 minutes at ambient temperature; endogenous in cells; host or cells: SK-N-MC cells (membranes)
The experiment in a line: Binding studies with SK-N-MC cells (125I-CGRP displacement from membranes). Conditions: 50 pM 125I-iodotyrosyl-CGRP, 180 min, ambient temperature. The method, then: A. Binding Studies with SK-N-MC Cells (Expressing the Human CGRP Receptor)
SK-N-MC membranes (˜20 μg protein) are incubated for 180 minutes at ambient temperature with 50 pM ^125I-iodotyrosyl-Calcitonin-Gene-Related Peptide and increasing concentrations of the test substances in a total volume of 250 μl (assay buffer: 10 mM tris, 50 mM NaCl, 5 mM MgCl2, 1 mM EDTA, pH=7.4). The incubation is ended by rapid filtration through GF/B-glass fibre filters treated with polyethyleneimine (0.1%) using a cell harvester. The protein-bound radioactivity is measured using a gamma counter. Non-specific binding is defined as the bound radioactivity after the presence of 1 μM BIBN4096BS during incubation.
The concentration binding curves are analysed using computer-aided non-linear curve fitting.
T1 sequence (Q16602 23-461): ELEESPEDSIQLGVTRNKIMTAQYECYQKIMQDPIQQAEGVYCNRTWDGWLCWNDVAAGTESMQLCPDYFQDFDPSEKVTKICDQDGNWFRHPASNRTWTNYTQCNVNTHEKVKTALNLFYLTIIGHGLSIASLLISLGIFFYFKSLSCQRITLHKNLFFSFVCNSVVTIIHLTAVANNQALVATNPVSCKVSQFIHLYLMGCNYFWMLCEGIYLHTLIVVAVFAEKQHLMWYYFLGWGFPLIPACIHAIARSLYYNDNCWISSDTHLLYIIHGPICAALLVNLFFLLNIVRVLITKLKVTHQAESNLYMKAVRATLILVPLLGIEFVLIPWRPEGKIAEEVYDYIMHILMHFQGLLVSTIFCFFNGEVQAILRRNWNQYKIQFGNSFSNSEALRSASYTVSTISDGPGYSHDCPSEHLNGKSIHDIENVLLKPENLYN
T1 sequence (O60894 27-148): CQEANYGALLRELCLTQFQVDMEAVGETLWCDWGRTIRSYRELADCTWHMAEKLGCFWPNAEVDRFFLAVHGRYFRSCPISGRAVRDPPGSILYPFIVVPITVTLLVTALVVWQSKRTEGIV
The compound `COc1ccc2c(c1)CCN(C1CCN(c3cc(Oc4cc(C)c5nc([C@@H]6CCCO6)[nH]c5c4)ncn3)CC1)C(=O)N2` [(53)] had an inhibitory constant (Ki) of 5 nM. In the case of `Cc1cc(Oc2cc(N3CCC4(CC3)OC(=O)Nc3ncccc34)ncn2)cc2[nH]c([C@@H]3CCCO3)nc12` [(54)], the affinity corresponds to a Ki of 2 nM. For `COc1ccc2c(c1)CCN(C1CCN(c3cc(Oc4ccc5[nH]c(C)nc5c4)ncn3)CC1)C(=O)N2` [(55)] the value was 89 nM.

Turning to `COc1ccc2c(c1)CCN(C1CCN(c3cc(Oc4ccc5[nH]c(C)nc5c4Cl)ncn3)CC1)C(=O)N2` [(56)], the Ki stood at 29 nM. On to `COc1ccc2c(c1)CCN(C1CCN(c3cc(Oc4cc(C)c5c(c4)OCC(=O)N5)ncn3)CC1)C(=O)N2` [(57)], for which the inhibition constant (Ki) was 35 nM. `Cc1cc(Oc2cc(N3CCC4(CC3)OC(=O)Nc3ncccc34)ncn2)cc2nc(C3CCOC3)[nH]c12` (stereo not drawn) [(58)] returned a Ki of 2 nM. `Cc1cc(Oc2cc(N3CCC4(CC3)OC(=O)Nc3ncccc34)ncn2)cc2nc([C@@H]3CCOC3)[nH]c12` [(59)] registered a Ki of 2 nM. Turning to `Cc1cc(Oc2cc(N3CCC4(CC3)OC(=O)Nc3ncccc34)ncn2)cc2nc([C@H]3CCOC3)[nH]c12` [(60)], the Ki worked out at 2 nM. Consider `O=C1Nc2ncccc2C2(CCN(c3cc(Oc4cc(Cl)c5[nH]c(C6CCOC6)nc5c4)ncn3)CC2)O1` (stereo not drawn) [(61)], for which the inhibition constant (Ki) turned out to be 2 nM.

In turn, `O=C1Nc2ncccc2C2(CCN(c3cc(Oc4cc(Cl)c5[nH]c(C6CCOCC6)nc5c4)ncn3)CC2)O1` [(62)] showed a Ki of 2 nM. `Cc1cc(Oc2cc(N3CCC4(CC3)OC(=O)Nc3ncccc34)ncn2)cc2nc(C(F)(F)F)[nH]c12` [(63)] returned an inhibitory constant (Ki) of 2 nM. For `Cc1cc(Oc2cc(N3CCC4(CC3)OC(=O)Nc3ncccc34)ncn2)cc2sc(=O)[nH]c12` [(64)] the value was 2 nM; for `Cc1cc(Oc2cc(N3CCC4(CC3)OC(=O)Nc3ncccc34)ncn2)cc2nc(C3CCOCC3)[nH]c12` [(65)], 3 nM; for `COCCc1nc2c(C)cc(Oc3cc(N4CCC5(CC4)OC(=O)Nc4ncccc45)ncn3)cc2[nH]1` [(66)], 6 nM. `COc1nc2cc(Oc3cc(N4CCC5(CC4)OC(=O)Nc4ncccc45)ncn3)cc(C)c2[nH]1` [(67)] gave an inhibition constant Ki of 6 nM. Then `Cc1cc(Oc2cc(N3CCC4(CC3)OC(=O)Nc3ncccc34)ncn2)cc2cn[nH]c12` [(68)], with 4 nM; and `Cc1cc(Oc2cc(N3CCC4(CC3)OC(=O)Nc3ncccc34)ncn2)cc2c1NC(=O)CO2` [(69)], with 4 nM.

Compound `Cc1cc(Oc2cc(N3CCC4(CC3)OC(=O)Nc3ncccc34)ncn2)cc2[nH]c([C@H]3CCCO3)nc12` [(70)] displayed a Ki of 5 nM. Turning to `Cc1nc(Oc2cc(C)c3[nH]c(=O)oc3c2)cc(N2CCC3(CC2)OC(=O)Nc2ncccc23)n1` [(71)], the Ki was 8 nM. On to `COc1ccc2c(c1)CCN(C1CCN(c3cc(Oc4cc(C)c5[nH]c(=O)sc5c4)ncn3)CC1)C(=O)N2` [(72)], for which the inhibitory constant (Ki) turned out to be 3 nM. As to `COc1ccc2c(c1)CCN(C1CCN(c3cc(Oc4cc(C)c5nc(C6CCOC6)[nH]c5c4)ncn3)CC1)C(=O)N2` (stereo not drawn) [(73)], the Ki amounted to 3 nM. Then `Cc1cc(Oc2cc(N3CCC4(CC3)OC(=O)Nc3ncccc34)nc(C(F)(F)F)n2)cc2oc(=O)[nH]c12` [(74)], with 29 nM; and `Cc1cc(Oc2cc(N3CCC4(CC3)OC(=O)Nc3ncccc34)ncc2C#N)cc2oc(=O)[nH]c12` [(75)], with 23 nM. For the compound `Cc1nc(Oc2cc(C)c3[nH]c(=O)oc3c2)cc(N2CCC3(CC2)CC(=O)Nc2ncccc23)n1` [(76)], the inhibition constant Ki was found to be 26 nM. Take `Cc1nc(Oc2cc(C)c3[nH]c(=O)oc3c2)cc(N2CCC3(CC2)C(=O)Nc2ncccc23)n1` [(77)]: the Ki is 21 nM.

`COc1ccc2c(c1)CCN(C1CCN(c3cc(Oc4cc(C(F)(F)F)c5nc(C)[nH]c5c4)ncn3)CC1)C(=O)N2` [(79)] gave a Ki of 11 nM. In turn, `COc1ccc2c(c1)CCN(C1CCN(c3cc(Oc4cc(C)c5[nH]c(=O)oc5c4)cc[n+]3[O-])CC1)C(=O)N2` [(80)] came in with a Ki of 11 nM.

Values taken from patent US8952014B2, “Pyrimidine derivatives which are CGRP—antagonists” (Boehringer Ingelheim International GmbH, priority 2008, dated 2015).
